Results as given in patent publication US8815872B2, “Macrocyclics pyrimidines as aurora kinase inhibitors” (Merck Patent GmbH, priority 2008, dated 2014).

How the values were obtained:
Test in all cases: Other kinases, single-concentration inhibition (Table 3)
Assay type in all cases: biochemical
Abl(h) = target: T1, Abl(h) (Homo sapiens, UniProt P00519)
T1 construct: purchased Caliper Life Sciences
Procedure: (§1) The Aurora and other kinase assays described here were performed on two Caliper Life Sciences systems, the LC3000 and the Desktop Profiler. These provide data on enzyme activity via measurement of the relative amounts of phosphorylated or unphosphorylated fluorescently labelled substrate peptide at the end of an enzymatic reaction. These different states of peptide are resolved by applying a potential difference across the sample. The presence of a charged phosphate group on the product (as opposed to the substrate) causes a different peptide mobility between the two peptides. This is visualized by excitation of a fluorescent label on the substrate and product peptides and represented as peaks within the analysis software.
(§2) The Desktop Profiler utilizes the same principal as the LC 3000 for calculating percentage conversion of a substrate to product. Caliper Life Sciences provided proprietary flash frozen pre-made 384 well plates containing selected kinases. Each column in the 384 well plate contained a particular selected kinase. A second plate, the ‘substrate plate’ contained a mix of fluorescently labeled peptide substrate and ATP. These were arranged in columns so that transfer for substrate plate to enzyme plate provided the correct enzyme with the correct substrate/ATP concentration.
(§3) Compounds were added to a thawed enzyme plate in the desired format, in single concentrations. Reactions were initiated by transfer of the ubstrate/ATP mix from the substrate plate. The enzyme plate was incubated for 90 mins at 25 °C. The reaction was stopped by addition of […] of Stop Buffer (100 mM HEPES pH 7.5, 0.015% Brij-35, 10 mM EDTA (Sigma, E7889)).
(§4) Plates were read in a manner identical to that of the LC3000, and the ratio between substrate and product peaks provided the activity of the enzyme in that well. This was best represented by a plate heat map which colors each well by percent inhibition as compared to positive and negative controls (no inhibitors and no ATP respectively).

CaMKIV(h) = target: T2, CaMKIV(h) (Homo sapiens, UniProt Q16566)
T2 construct: purchased Caliper Life Sciences
T2 sequence (Q16566 1-473): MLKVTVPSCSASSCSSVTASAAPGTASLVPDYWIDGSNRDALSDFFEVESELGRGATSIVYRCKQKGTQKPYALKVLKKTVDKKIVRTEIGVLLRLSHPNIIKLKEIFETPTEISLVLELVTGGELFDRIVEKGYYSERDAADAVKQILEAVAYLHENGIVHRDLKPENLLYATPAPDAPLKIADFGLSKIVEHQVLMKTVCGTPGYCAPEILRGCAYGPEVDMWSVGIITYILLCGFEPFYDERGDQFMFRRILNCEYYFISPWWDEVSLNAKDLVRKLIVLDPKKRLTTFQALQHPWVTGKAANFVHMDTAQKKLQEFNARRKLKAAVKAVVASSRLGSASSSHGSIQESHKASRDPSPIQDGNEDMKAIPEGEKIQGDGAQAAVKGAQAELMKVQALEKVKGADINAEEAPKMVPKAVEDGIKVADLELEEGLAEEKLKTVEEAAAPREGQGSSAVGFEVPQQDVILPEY
Procedure: as §1, §2, §3, §4

IRAK4(h) = target: T3, IRAK4(h) (Homo sapiens, UniProt Q9NWZ3)
T3 construct: purchased Caliper Life Sciences
T3 sequence (Q9NWZ3 1-460): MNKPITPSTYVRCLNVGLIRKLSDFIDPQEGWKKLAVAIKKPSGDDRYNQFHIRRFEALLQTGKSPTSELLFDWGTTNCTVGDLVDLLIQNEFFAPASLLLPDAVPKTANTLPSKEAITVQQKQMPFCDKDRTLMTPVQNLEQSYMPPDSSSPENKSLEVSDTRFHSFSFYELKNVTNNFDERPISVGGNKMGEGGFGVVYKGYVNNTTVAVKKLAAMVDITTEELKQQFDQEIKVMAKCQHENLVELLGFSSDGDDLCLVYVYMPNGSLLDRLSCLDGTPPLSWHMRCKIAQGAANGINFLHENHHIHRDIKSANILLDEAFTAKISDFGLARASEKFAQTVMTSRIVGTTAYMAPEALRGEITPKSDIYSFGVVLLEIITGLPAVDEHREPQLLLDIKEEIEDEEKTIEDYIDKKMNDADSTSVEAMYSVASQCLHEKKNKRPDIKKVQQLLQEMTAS
Procedure: as §1, §2, §3, §4

MSK2(h) = target: T4, MSK2(h) (Homo sapiens, UniProt O75676)
T4 construct: purchased Caliper Life Sciences
Procedure: as §1, §2, §3, §4

NEK2(h) = target: T5, NEK2(h) (Homo sapiens, UniProt P51955)
T5 construct: purchased Caliper Life Sciences
T5 sequence (P51955 1-445): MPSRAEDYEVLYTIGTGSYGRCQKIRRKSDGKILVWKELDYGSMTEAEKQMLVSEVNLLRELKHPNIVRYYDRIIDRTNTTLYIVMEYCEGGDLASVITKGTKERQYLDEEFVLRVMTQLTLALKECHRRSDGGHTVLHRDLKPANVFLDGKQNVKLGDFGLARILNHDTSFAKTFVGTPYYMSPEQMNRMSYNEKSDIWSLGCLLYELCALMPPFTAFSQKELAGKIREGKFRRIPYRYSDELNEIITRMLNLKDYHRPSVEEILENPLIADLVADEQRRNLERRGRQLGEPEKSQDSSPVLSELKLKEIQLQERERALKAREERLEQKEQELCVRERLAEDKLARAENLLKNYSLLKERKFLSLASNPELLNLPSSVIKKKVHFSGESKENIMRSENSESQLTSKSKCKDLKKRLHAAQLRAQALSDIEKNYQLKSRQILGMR
Procedure: as §1, §2, §3, §4

Tie2(h) = target: T6, Tie2(h) (Homo sapiens, UniProt Q02763)
T6 construct: purchased Caliper Life Sciences
Procedure: as §1, §2, §3, §4

ZAP-70(h) = target: T7, ZAP-70(h) (Homo sapiens, UniProt P43403)
T7 construct: purchased Caliper Life Sciences
T7 sequence (P43403 1-619): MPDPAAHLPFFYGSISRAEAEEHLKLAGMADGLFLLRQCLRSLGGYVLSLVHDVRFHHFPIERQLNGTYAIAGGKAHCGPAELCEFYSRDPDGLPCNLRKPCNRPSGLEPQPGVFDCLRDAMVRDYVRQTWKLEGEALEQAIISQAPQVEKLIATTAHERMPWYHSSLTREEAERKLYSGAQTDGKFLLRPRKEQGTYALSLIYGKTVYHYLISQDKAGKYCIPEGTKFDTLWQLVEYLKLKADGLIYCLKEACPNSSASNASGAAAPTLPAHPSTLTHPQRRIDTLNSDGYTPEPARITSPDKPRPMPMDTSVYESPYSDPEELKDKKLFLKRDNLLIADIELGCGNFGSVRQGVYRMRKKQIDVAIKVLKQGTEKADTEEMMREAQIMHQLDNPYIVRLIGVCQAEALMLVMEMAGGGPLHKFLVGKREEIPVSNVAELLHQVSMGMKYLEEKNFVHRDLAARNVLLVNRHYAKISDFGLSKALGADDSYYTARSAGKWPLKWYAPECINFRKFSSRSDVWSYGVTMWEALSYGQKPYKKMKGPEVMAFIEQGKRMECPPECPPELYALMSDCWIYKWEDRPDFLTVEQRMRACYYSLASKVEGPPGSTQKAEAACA
Procedure: as §1, §2, §3, §4

T4 sequence (O75676 whole entry): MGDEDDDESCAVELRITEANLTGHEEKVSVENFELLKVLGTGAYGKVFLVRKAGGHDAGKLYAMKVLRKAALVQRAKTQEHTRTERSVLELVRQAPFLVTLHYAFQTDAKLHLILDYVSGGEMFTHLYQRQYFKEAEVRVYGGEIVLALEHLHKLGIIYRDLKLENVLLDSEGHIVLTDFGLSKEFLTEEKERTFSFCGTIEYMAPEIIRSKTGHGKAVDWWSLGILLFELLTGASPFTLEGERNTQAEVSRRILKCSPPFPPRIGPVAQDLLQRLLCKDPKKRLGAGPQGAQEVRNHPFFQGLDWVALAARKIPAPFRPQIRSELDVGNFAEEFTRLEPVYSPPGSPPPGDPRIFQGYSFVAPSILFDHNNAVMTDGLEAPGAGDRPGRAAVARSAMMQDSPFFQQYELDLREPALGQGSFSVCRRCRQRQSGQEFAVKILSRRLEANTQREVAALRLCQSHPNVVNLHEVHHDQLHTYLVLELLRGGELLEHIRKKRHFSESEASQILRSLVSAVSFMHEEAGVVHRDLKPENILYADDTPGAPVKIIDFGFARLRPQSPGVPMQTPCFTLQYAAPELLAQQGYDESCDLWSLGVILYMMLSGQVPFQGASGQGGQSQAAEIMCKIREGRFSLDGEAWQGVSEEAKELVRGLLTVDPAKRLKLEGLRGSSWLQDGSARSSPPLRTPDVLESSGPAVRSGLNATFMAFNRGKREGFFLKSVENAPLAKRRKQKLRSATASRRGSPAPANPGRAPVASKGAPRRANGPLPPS
T1 sequence (P00519 whole entry): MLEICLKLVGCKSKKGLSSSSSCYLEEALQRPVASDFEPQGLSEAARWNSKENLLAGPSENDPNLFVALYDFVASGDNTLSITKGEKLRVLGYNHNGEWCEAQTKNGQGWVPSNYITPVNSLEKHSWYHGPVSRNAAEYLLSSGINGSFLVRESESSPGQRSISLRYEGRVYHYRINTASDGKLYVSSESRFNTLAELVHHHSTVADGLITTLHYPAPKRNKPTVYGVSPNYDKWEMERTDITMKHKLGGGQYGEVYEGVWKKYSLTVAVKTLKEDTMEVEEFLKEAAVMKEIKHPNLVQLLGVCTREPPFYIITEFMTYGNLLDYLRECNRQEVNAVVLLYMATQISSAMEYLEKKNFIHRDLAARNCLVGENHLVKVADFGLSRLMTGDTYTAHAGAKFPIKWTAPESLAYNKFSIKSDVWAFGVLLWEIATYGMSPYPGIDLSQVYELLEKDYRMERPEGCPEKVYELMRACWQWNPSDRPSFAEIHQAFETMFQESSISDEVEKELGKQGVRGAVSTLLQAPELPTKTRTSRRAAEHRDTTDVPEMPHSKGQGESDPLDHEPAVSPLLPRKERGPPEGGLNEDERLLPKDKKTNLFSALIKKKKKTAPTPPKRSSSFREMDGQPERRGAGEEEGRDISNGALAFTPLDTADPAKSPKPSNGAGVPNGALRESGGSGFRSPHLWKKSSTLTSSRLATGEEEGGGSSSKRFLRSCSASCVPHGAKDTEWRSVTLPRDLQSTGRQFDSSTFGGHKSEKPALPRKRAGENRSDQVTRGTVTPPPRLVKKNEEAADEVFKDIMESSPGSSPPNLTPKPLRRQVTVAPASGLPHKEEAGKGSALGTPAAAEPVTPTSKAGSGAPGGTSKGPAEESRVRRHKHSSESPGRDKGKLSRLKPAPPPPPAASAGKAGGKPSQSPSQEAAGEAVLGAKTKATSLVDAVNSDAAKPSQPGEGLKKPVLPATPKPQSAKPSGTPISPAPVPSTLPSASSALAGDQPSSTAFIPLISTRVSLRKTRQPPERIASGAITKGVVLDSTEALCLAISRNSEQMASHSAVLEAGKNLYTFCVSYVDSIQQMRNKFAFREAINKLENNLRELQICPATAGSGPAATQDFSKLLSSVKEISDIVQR
T6 sequence (Q02763 23-1124): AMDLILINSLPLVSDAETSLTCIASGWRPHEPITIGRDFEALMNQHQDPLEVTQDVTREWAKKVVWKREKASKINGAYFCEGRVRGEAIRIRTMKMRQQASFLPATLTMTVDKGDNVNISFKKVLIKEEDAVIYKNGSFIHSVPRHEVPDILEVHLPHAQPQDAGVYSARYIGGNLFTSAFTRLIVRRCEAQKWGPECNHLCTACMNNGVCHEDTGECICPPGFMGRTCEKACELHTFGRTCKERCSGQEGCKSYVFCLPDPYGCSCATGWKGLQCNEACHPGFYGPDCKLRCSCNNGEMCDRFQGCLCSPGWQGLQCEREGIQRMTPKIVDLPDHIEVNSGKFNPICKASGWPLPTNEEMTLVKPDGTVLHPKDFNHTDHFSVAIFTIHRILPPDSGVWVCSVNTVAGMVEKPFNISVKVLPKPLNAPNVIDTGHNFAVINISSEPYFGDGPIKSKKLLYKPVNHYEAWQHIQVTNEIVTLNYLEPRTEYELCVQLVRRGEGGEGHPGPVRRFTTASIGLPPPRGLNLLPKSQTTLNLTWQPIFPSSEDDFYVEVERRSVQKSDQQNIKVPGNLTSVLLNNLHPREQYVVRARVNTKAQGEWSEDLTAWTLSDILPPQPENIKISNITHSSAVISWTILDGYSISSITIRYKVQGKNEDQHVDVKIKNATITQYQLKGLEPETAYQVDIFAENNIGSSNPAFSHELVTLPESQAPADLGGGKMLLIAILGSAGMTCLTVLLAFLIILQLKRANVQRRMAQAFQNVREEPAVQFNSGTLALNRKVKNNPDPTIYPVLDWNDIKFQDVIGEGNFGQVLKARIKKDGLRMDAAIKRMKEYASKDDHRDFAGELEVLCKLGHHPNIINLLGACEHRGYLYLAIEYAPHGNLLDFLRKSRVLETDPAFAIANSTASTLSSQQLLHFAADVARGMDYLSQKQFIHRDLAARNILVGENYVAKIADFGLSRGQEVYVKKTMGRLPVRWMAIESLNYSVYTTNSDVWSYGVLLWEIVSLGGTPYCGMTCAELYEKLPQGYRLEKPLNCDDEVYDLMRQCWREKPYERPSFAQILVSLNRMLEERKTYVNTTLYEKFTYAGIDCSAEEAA

Row | inhibition at 1 µM (Abl(h)) | % inhibition CaMKIV(h) (CaMKIV(h); 1 μM) | % inhibition IRAK4(h) (IRAK4(h); 1 μM) | % inhibition MSK2(h) (MSK2(h); 1 μM) | % inhibition NEK2(h) (NEK2(h); 1 μM) | % inhibition Tie2(h) (Tie2(h); 1 μM) | % inhibition ZAP-70(h) (ZAP-70(h); 1 μM) | inhibition at 10 µM (Abl(h); 10 μM) | % inhibition CaMKIV(h) (CaMKIV(h); 10 μM) | % inhibition IRAK4(h) (IRAK4(h); 10 μM) | % inhibition MSK2(h) (MSK2(h); 10 μM) | % inhibition NEK2(h) (NEK2(h); 10 μM) | % inhibition Tie2(h) (Tie2(h); 10 μM) | % inhibition ZAP-70(h) (ZAP-70(h); 10 μM) | SMILES
1 | 79% | 103% | 12% | 48% | 103% | 8% | 122% |  |  |  |  |  |  |  | NC(=O)[C@H]1[C@H]2C[C@H]3[C@H]1Nc1nc(ncc1F)Nc1cccc(c1)OCCS[C@@H]3C2 [Example 20]
2 |  |  |  |  |  |  |  | 44% | 76% | 31% | 75% | 92% | 33% | 94% | O=C(O)[C@H]1[C@H]2C[C@H]3[C@H]1Nc1nc(ncc1F)Nc1cccc(c1)OCCS[C@@H]3C2 [Example 21]
3 | -4% | 83% | 52% | 60% | 96% | 46% |  |  |  |  |  |  |  |  | CN1CCN(c2ccc3cc2OCCS[C@@H]2C[C@@H]4C[C@H]2[C@@H](Nc2nc(ncc2F)N3)[C@H]4C(N)=O)CC1 [Example 22]
4 | -4% | 100% | 19% | 81% | 101% | 8% | 112% |  |  |  |  |  |  |  | CN1CCN(c2ccc3cc2NC(=O)CS[C@@H]2C[C@@H]4C[C@H]2[C@@H](Nc2nc(ncc2F)N3)[C@H]4C(N)=O)CC1 [Example 24]
5 | -1% | 11% | 43% | 2% | 79% | 44% | 112% |  |  |  |  |  |  |  | N#Cc1ccc2cc1NC(=O)CS[C@@H]1C[C@@H]3C[C@H]1[C@@H](Nc1nc(ncc1F)N2)[C@H]3C(N)=O [Example 26]
6 | 3% | 111% | 12% | 65% | 113% | 2% | 125% |  |  |  |  |  |  |  | NC(=O)[C@H]1[C@H]2C[C@H]3[C@H]1Nc1nc(ncc1F)Nc1cccc(c1)NC(=O)CS[C@@H]3C2 [Example 27]

Continued, compound first:

Row | SMILES | inhibition at 1 µM (Abl(h)) | % inhibition CaMKIV(h) (CaMKIV(h); 1 μM) | % inhibition IRAK4(h) (IRAK4(h); 1 μM) | % inhibition MSK2(h) (MSK2(h); 1 μM) | % inhibition NEK2(h) (NEK2(h); 1 μM) | % inhibition Tie2(h) (Tie2(h); 1 μM) | % inhibition ZAP-70(h) (ZAP-70(h); 1 μM) | inhibition at 10 µM (Abl(h); 10 μM) | % inhibition CaMKIV(h) (CaMKIV(h); 10 μM) | % inhibition IRAK4(h) (IRAK4(h); 10 μM) | % inhibition MSK2(h) (MSK2(h); 10 μM) | % inhibition NEK2(h) (NEK2(h); 10 μM) | % inhibition Tie2(h) (Tie2(h); 10 μM) | % inhibition ZAP-70(h) (ZAP-70(h); 10 μM)
7 | C=C[C@@H]1C[C@@H]2/C=C/COc3cccc(c3)Nc3ncc(F)c(n3)N[C@H]2[C@H]1C(N)=O (single isomer, unassigned) [Example 3] | 105% | 140% | 82% | 136% | 95% | 99% | 109% |  |  |  |  |  |  | 
8 | CC[C@@H]1C[C@@H]2CCCOc3cccc(c3)Nc3ncc(F)c(n3)N[C@H]2[C@H]1C(N)=O (single isomer, unassigned) [Example 5] | 105% | 97% | 81% | 56% | 110% | 104% | 122% |  |  |  |  |  |  | 
9 | CC[C@@H]1C[C@@H]2/C=C\COc3cccc(c3)Nc3ncc(F)c(n3)N[C@H]2[C@H]1C(N)=O (single isomer, unassigned) [Example 6] | 99% | 99% | 52% | 60% | 107% | 119% | 125% |  |  |  |  |  |  | 
10 | NC(=O)[C@H]1[C@H]2C[C@H]3[C@H]1Nc1nc(ncc1F)Nc1cccc(c1)CSS[C@@H]3C2 [Example 10] | 101% | 66% | 3% | 3% | 49% | 101% | 118% |  |  |  |  |  |  | 
11 | NC(=O)[C@H]1[C@H]2C[C@H]3[C@H]1Nc1nc(ncc1F)Nc1cccc(c1)C(=O)CS[C@@H]3C2 [Example 11] | 92% | 119% | 90% | 89% | 98% | 91% | 124% |  |  |  |  |  |  | 
